Assay: cn = amount concentration of the nth substance listed, in mol/dm3
Conditions: 298.15 K, 101.3 kPa, Liquid, Taylor dispersion method

binary diffusion coefficient (c1 = 0.0002) [m2/s]	binary diffusion coefficient (c1 = 0.000402) [m2/s]	binary diffusion coefficient (c1 = 0.000603) [m2/s]	binary diffusion coefficient (c1 = 0.000801) [m2/s]	binary diffusion coefficient (c1 = 0.002) [m2/s]	binary diffusion coefficient (c1 = 0.00499) [m2/s]	binary diffusion coefficient (c1 = 0.00997) [m2/s]	binary diffusion coefficient (c1 = 0.05) [m2/s]	SMILES
6.18e-10	6.18e-10	6.16e-10	6.11e-10	–	–	–	–	O=C([O-])CC(O)(CC(=O)[O-])C(=O)[O-].O=C([O-])CC(O)(CC(=O)[O-])C(=O)[O-].[Ca+2].[Ca+2].[Ca+2] [calcium citrate] + O
–	–	–	–	8.48e-10	7.9e-10	7.6e-10	7.19e-10	O=C(O)CC(O)(CC(=O)O)C(=O)O [citric acid] + O

From the NIST ThermoML archive (doi:10.1016/j.jct.2018.11.003)
